Reference: ChEMBL document CHEMBL4765274, “The development of advanced structural framework as multi-target-directed ligands for the treatment of Alzheimer's disease” (Eur J Med Chem, 2020)
pIC50: −log10 of the molar value. Calls of active or inactive are those of the source. The rule behind the calls is not given here. Peptide text beside a SMILES is read from it. * marks the point of attachment. Cbz = O=C(OCc1ccccc1)*

Key:
[1] = Antioxidant activity assessed as trolox equivalent of AAPH radical scavenging activity measured every min for 4 hrs by ORAC-FL assay relative to trolox; format: functional
[2] = target: T1, Acetylcholinesterase (Homo sapiens, UniProt P22303); assay: Inhibition of AChE in human erythrocytes by Ellman's method; format: cell-based, Erythrocyte
[3] = target: T2, Cholinesterase (Homo sapiens, UniProt P06276); assay: Inhibition of human serum BChE by Ellman's method; format: cell-free
[4] = target: T2, Cholinesterase; assay: Inhibition of human serum BChE by Ellman's method relative to control; format: cell-free; parameters: concentration or dose not given beside the values; details: concentration not given here
[5] = target: Acetylcholinesterase (Electrophorus electricus, UniProt O42275); assay: Inhibition of electric eel AChE by Ellman's method
[6] = target: T2, Cholinesterase; assay: Inhibition of human serum BChE at 25 uM by Ellman's method relative to control; format: cell-free
[7] = target: T1, Acetylcholinesterase; assay: Inhibition of AChE in human erythrocytes at 25 uM by Ellman's method relative to control; format: cell-based; details: Erythrocyte
[8] = target: Cholinesterase (Equus caballus) (UniProt P81908); assay: Inhibition of equine serum BChE at 25 uM by Ellman's method relative to control; format: cell-free
[9] = target: Acetylcholinesterase (Electrophorus electricus) (UniProt O42275); assay: Inhibition of electric eel AChE at 25 uM by Ellman's method relative to control
[10] = Selectivity index, ratio of IC50 for inhibition of equine serum BChE to IC50 for inhibition of electric eel AChE
[11] = target: Cholinesterase (Equus caballus, UniProt P81908); assay: Inhibition of equine serum BChE by Ellman's method; format: cell-free
[12] = Inhibition of Cu2+-induced amyloid beta (1 to 42 residues) (unknown origin) aggregation at 25 uM after 24 hrs by thioflavin-T fluorescence method relative to control
[13] = species: Homo sapiens; assay: Inhibition of self-induced amyloid beta (1 to 42 residues) (unknown origin) aggregation at 25 uM by thioflavin T based fluorescence assay relative to control
[14] = Disaggregation of Cu2+ induced amyloid beta (1 to 42 residues) (unknown origin) aggregation at 25 uM by thioflavin-T fluorescence method relative to control
[15] = tested on: HT-22; assay: Inhibition of ubiquitin-proteasome system in mouse HT-22 cells expressing YFP-CLI assessed as increase in GFP level at 0.5 uM after 24 hrs by fluorescence microscopic method; format: cell-based
[16] = tested on: HT-22; assay: Inhibition of ubiquitin-proteasome system in mouse HT-22 cells expressing YFP-CLI assessed as increase in GFP level at 0.5 uM after 24 hrs by flow cytometric analysis; format: cell-based
[17] = Inhibition of self-induced amyloid beta (1 to 42 residues) (unknown origin) aggregation by thioflavin T based fluorescence assay; parameters: species or system Homo sapiens; details: read-out: IC50
[18] = tested on: PC-12; assay: Neuroprotective activity against H2O2-induced cytotoxicity in rat PC-12 cells assessed as increase in cell viability preincubated for 2 hrs followed by H2O2 addition and measured after 24 hrs by MTT assay; format: functional, cell-based; details: dose 1-10 µM, time 26.0 hrs
[19] = tested on: PC-12; assay: Neuroprotective activity against H2O2-induced cytotoxicity in rat PC-12 cells assessed as decrease in LDH activity at 1 to 10 uM preincubated for 2 hrs followed by H2O2 addition and measured after 24 hrs by LDH assay; format: functional, cell-based; details: dose 1-10 µM, time 26.0 hrs
[20] = tested on: SH-SY5Y; assay: Cytotoxicity against human SH-SY5Y cells assessed as cell viability up to 100 uM after 48 hrs by MTT assay relative to control; format: cell-based
[21] = tested on: SH-SY5Y; assay: Neuroprotective activity against amyloid beta (1 to 42 residues)-induced cytotoxicity in human SH-SY5Y cells assessed as increase in cell viability at 1 to 10 uM incubated for 48 hrs by MTT assay; format: functional, cell-based; details: dose 1-10 µM
[22] = tested on: PC-12; assay: Cytotoxicity against rat PC-12 cells assessed as reduction in cell viability up to 100 uM after 48 hrs by MTT assay; format: cell-based; details: pc-12, 48 h
[23] = Effective permeability of compound at 100 ug/m by PAMPA-BBB assay; format: ADME; details: read-out: Peff

Sequence of Acetylcholinesterase (Electrophorus electricus, UniProt O42275) (O42275 whole entry): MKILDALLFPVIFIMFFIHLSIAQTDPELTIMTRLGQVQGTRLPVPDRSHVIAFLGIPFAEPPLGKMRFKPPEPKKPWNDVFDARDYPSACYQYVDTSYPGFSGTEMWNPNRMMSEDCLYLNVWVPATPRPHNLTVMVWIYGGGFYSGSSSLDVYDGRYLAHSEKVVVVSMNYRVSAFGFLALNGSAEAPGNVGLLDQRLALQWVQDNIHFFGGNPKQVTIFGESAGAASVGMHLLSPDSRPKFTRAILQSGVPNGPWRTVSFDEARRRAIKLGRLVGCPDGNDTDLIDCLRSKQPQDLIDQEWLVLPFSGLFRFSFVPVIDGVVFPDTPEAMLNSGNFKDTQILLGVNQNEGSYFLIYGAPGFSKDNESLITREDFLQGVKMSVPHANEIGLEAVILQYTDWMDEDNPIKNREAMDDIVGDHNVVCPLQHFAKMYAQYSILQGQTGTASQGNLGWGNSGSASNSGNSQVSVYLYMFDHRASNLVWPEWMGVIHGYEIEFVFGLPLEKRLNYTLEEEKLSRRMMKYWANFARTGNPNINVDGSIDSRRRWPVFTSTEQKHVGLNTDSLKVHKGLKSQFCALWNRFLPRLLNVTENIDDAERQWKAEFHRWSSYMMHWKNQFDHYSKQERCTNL
T2 sequence (P06276 whole entry): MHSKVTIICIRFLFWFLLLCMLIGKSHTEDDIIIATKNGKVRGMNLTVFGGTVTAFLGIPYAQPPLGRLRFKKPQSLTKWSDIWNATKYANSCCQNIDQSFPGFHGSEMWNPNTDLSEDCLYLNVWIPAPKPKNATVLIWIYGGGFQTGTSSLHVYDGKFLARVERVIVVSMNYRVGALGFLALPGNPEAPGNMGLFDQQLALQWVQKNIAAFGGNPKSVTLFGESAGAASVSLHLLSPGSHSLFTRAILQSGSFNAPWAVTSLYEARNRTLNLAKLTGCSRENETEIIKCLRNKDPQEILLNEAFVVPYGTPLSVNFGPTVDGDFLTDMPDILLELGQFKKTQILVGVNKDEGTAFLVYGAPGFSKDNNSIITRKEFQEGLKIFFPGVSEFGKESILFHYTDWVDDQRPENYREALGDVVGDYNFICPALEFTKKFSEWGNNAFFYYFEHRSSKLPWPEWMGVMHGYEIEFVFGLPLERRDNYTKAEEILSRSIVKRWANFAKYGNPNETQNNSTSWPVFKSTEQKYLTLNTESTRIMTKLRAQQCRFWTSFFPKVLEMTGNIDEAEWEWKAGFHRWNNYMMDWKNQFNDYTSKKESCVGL
Sequence of Acetylcholinesterase (Electrophorus electricus) (O42275 24-633 limits assumed): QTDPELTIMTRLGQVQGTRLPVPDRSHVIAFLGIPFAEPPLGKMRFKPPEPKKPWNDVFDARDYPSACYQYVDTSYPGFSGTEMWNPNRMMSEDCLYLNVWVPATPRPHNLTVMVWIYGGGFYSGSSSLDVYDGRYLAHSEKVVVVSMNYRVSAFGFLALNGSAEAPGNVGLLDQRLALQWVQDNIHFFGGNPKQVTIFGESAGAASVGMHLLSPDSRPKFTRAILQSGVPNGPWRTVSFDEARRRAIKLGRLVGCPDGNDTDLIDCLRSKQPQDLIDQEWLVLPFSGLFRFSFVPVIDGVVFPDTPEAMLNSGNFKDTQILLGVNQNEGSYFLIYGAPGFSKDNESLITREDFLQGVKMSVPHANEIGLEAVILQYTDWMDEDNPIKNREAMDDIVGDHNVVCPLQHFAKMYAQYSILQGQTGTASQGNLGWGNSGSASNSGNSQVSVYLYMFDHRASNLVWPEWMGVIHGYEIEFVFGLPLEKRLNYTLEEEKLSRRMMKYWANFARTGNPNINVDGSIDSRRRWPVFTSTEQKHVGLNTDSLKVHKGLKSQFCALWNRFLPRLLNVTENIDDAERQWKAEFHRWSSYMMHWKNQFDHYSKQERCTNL
T1 sequence (P22303 whole entry): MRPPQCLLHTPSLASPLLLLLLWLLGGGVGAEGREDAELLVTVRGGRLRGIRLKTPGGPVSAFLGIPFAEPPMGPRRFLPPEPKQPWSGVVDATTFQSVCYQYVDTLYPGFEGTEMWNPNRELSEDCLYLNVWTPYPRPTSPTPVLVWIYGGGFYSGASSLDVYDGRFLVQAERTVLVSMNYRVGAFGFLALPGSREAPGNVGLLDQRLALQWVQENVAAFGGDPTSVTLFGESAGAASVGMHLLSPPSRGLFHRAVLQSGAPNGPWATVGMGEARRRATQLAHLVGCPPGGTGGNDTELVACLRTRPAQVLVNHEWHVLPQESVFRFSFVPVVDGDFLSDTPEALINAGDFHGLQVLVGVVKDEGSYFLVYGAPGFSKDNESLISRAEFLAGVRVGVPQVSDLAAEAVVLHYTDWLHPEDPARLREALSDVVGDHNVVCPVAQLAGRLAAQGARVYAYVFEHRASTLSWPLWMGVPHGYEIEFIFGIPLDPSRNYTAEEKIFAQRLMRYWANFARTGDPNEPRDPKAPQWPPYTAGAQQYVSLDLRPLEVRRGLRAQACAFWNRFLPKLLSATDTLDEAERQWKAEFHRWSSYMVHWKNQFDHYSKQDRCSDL
Sequence of Cholinesterase (Equus caballus, UniProt P81908) (P81908 whole entry, the tested form may be a part): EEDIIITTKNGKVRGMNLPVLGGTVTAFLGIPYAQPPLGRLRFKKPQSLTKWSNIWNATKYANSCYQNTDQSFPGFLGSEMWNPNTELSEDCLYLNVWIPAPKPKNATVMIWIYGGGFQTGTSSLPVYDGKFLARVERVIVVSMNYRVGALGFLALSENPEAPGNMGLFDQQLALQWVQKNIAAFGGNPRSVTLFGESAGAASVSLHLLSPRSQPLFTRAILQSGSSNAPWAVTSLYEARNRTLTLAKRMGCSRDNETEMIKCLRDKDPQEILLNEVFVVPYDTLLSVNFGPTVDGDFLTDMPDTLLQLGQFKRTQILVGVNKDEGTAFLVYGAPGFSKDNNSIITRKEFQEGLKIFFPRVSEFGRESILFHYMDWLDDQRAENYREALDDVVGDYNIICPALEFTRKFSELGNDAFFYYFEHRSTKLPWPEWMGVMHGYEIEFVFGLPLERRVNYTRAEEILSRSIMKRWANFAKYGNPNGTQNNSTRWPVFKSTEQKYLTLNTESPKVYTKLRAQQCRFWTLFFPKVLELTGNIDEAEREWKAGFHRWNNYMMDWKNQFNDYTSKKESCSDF
Sequence of Cholinesterase (Equus caballus) (P81908 whole entry): as the sequence (P81908 whole entry, the tested form may be a part) above

| SMILES | fold change (FC) [1] | pIC50 [2] | pIC50 [3] | pIC50 [5] | Ratio IC50 [10] | pIC50 [11] | further results |
| --- | --- | --- | --- | --- | --- | --- | --- |
| O=c1c(-c2ccc(OCCCCN3CCN(Cc4ccccc4)CC3)cc2)coc2cc(OCCCCN3CCN(Cc4ccccc4)CC3)cc(O)c12 | 1.8 | 4.60 | 4.58 | 4.70 |  |  | inhibition [4]: 5.8% |
| CCN(CCCCOc1ccc(-c2coc3cc(OCCCCN(CC)Cc4ccccc4)cc(O)c3c2=O)cc1)Cc1ccccc1 | 1.4 | 5.68 | 4.74 | 5.64 |  |  | inhibition [4]: 12% |
| O=C1CC(c2ccc(OCCCCN3CCN(Cc4ccccc4)CC3)cc2)Oc2cc(OCCCCN3CCN(Cc4ccccc4)CC3)cc(O)c21 (stereo not drawn) | 1.7 | 4.73 | 4.67 | 4.94 |  |  | inhibition [4]: 12.2% |
| O=C(C=Cc1ccccc1)c1ccccc1 | 2.6 |  |  |  |  |  | inhibition [6]: < 5%; inhibition [7]: < 5%; inhibition [8]: < 5%; inhibition [9]: < 5% |
| O=C1CC(c2ccc(OCCCCN3CCc4ccccc4C3)cc2)Oc2cc(OCCCCN3CCc4ccccc4C3)cc(O)c21 (stereo not drawn) | 1.2 | 4.88 | 4.70 | 4.77 |  |  | inhibition [4]: 8.8% |
| O=C(/C=C/c1ccc(OCCCCN2CCCC2)cc1)c1c(O)cc(OCCCCN2CCCC2)cc1O | 0.93 | 5.49 | 5.74 | 5.24 | 1.4 | 5.09 |  |
| O=C(/C=C/c1ccc(OCCCCN2CCCCC2)cc1)c1c(O)cc(OCCCCN2CCCCC2)cc1O | 1.1 | 5.29 | 5.43 | 5.45 | 2 | 5.14 |  |
| CC1c2ccccc2CCN1CCCCOc1ccc(-c2coc3cc(OCCCCN4CCc5ccccc5C4C)cc(O)c3c2=O)cc1 (stereo not drawn) | 1.3 | 5.28 | 4.91 | 5.74 |  |  | inhibition [4]: 19% |
| O=c1c(-c2ccc(OCCCCN3CCC(Cc4ccccc4)CC3)cc2)coc2cc(OCCCCN3CCC(Cc4ccccc4)CC3)cc(O)c12 | 1.2 | 5.14 | 4.92 | 5.14 | 4.4 | 4.50 |  |
| O=c1cc(-c2ccc(OCCCCN3CCc4ccccc4C3)cc2)oc2cc(OCCCCN3CCc4ccccc4C3)cc(O)c12 | 1.3 | 6.23 | 4.80 | 4.74 | 0.96 | 4.76 |  |
| O=C1C[C@@H](c2ccc(O)cc2)Oc2cc(O)cc(O)c21 | 5.5 |  |  |  |  |  | inhibition [6]: < 5%; inhibition [7]: < 5%; inhibition [8]: < 5%; inhibition [9]: < 5% |
| COc1cc(/C=C/C(=O)CC(=O)/C=C/c2ccc(O)c(OC)c2)ccc1O |  |  |  |  |  |  | inhibition [12]: 53.6%; inhibition [13]: 43.7%; Activity [14]: 56.1% |
| CC(C)C[C@@H](C=O)NC(=O)[C@H](CC(C)C)NC(=O)[C@H](CC(C)C)NC(=O)OCc1ccccc1 (Cbz-Leu-Leu-Leu-aldehyde) |  |  |  |  |  |  | inhibition [15]: Active; inhibition [16]: Active |
| O=c1cc(-c2ccc(OCCCCN3CCC(Cc4ccccc4)CC3)cc2)oc2cc(OCCCCN3CCC(Cc4ccccc4)CC3)cc(O)c12 | 1.1 | 6.17 | 4.89 | 4.97 | 1.8 | 4.71 |  |
| O=C(/C=C/c1ccc(OCCCCN2CCC(Cc3ccccc3)CC2)cc1)c1c(O)cc(OCCCCN2CCC(Cc3ccccc3)CC2)cc1O | 1.1 | 4.92 | 5.03 | 4.79 | 2.8 | 4.34 |  |
| CCN(CCCCOc1ccc(C2CC(=O)c3c(O)cc(OCCCCN(CC)Cc4ccccc4OC)cc3O2)cc1)Cc1ccccc1OC (stereo not drawn) | 1.3 | 5.37 | 4.81 | 5.28 | 4.1 | 4.66 | pIC50 [17]: 4.51; Activity [18]: Dose-dependent effect; Activity [19]: Active; Activity [20]: Non-Toxic; Activity [21]: Active; Activity [22]: Non-Toxic |
| O=c1cc(-c2ccc(O)cc2)oc2cc(O)cc(O)c12 [APIGENIN] | 6.1 |  |  |  |  |  | inhibition [6]: < 5%; inhibition [7]: < 5%; inhibition [8]: < 5%; inhibition [9]: < 5%; Papp at 100 ug/m [23]: 15.7 ×10⁻⁶ cm/s |
| O=C1CC(c2ccc(OCCCCN3CCC(Cc4ccccc4)CC3)cc2)Oc2cc(OCCCCN3CCC(Cc4ccccc4)CC3)cc(O)c21 (stereo not drawn) | 0.98 | 5.12 | 4.73 | 5.09 | 0.93 | 5.12 |  |
| CCN(CC)CCCCOc1ccc(/C=C/C(=O)c2c(O)cc(OCCCCN(CC)CC)cc2O)cc1 | 0.9 | 5.33 | 5.08 | 5.20 | 4.9 | 4.51 |  |
| O=c1c(-c2ccc(O)cc2)coc2cc(O)cc(O)c12 | 5.1 |  |  |  |  |  | inhibition [6]: < 5%; inhibition [8]: < 5% |
| O=c1c(-c2ccc(OCCCCN3CCCCC3)cc2)coc2cc(OCCCCN3CCCCC3)cc(O)c12 | 1.2 | 6.09 | 4.71 | 6.28 | 4.2 | 5.66 | pIC50 [17]: 4.71; Activity [18]: Dose-dependent effect; Activity [19]: Active; Activity [20]: Non-Toxic; Activity [21]: Active; Activity [22]: Non-Toxic |
| O=c1cc(-c2ccc(OCCCCN3CCN(Cc4ccccc4)CC3)cc2)oc2cc(OCCCCN3CCN(Cc4ccccc4)CC3)cc(O)c12 | 1.8 | 6.00 | 4.97 | 4.57 | 1.4 | 4.43 |  |
| O=c1c(-c2ccc(OCCCCN3CCc4ccccc4C3)cc2)coc2cc(OCCCCN3CCc4ccccc4C3)cc(O)c12 | 1.1 | 5.09 | 4.86 | 4.87 | 3.9 | 4.28 |  |
